Data as given in patent publication US8163771B2, “11 β-HSD1 modulators” (Exelixis, Inc., priority 2008, dated 2012).

Each compound was assayed against T1, recombinant human 11 β-HSD1 (Homo sapiens, UniProt P28845) (assay: 11 β-HSD1 SPA Assay (Scintillation Proximity Assay)).
T1 construct: made in house; host or cells: E. coli
T1 sequence (P28845 whole entry): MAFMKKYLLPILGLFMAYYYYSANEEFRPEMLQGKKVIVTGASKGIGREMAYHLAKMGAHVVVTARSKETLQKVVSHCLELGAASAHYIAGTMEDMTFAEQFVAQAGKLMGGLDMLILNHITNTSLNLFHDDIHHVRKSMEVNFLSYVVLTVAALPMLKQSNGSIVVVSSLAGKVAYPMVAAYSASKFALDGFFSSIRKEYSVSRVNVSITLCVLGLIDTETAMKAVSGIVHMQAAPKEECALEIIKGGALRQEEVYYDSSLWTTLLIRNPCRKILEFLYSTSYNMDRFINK
Assay type: biochemical
How it was run: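 E. coli-expressed human enzyme (30-100 nM) with tritiated cortisone 40 nM and NADPH 1 mM in HEPES buffer pH7.4, 2 hours at room temperature. Stopped with protein A SPA beads carrying anti-cortisol antibody and glycyrrhetinic acid; counted after overnight incubation. IC50 from percent inhibition between no-enzyme and no-compound signals.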
With C[C@@H](NC(=O)c1ccc(N2C3CCC2CC(NC(=O)C(C)(C)Oc2ccc(Cl)cc2C(F)(F)F)C3)nc1)C(F)(F)F (stereo partly drawn) [Example 412, 6-(3-endo-(2-(4-chloro-2-(trifluoromethyl)phenoxy)-2-methylpropanamido)-8-azabicyclo[3.2.1]octan-8-yl)-N-((R)-1,1,1-trifluoropropan-2-yl)nicotinamide] the IC50 was < 200 nM.
With CC(C)(Oc1cc(OCC(=O)O)c(Cl)cc1Cl)C(=O)N[C@H]1C[C@H]2CC[C@@H](C1)N2c1ccc(C(=O)NCC(F)(F)F)cn1 [Example 413, 2-(2,4-dichloro-5-(2-methyl-1-oxo-1-(8-(5-(2,2,2-trifluoroethylcarbamoyl)pyridin-2-yl)-8-azabicyclo[3.2.1]octan-3-endo-ylamino)propan-2-yloxy)phenoxy)acetic acid] the IC50 was < 200 nM.
CC(C)(Oc1cc(OC(C)(C)C(=O)N[C@H]2C[C@H]3CC[C@@H](C2)N3c2ccc(C(=O)NCC(F)(F)F)cn2)c(Cl)cc1Cl)C(=O)O [Example 414, 2-(2,4-dichloro-5-(2-methyl-1-oxo-1-(8-(5-(2,2,2-trifluoroethylcarbamoyl)pyridin-2-yl)-8-azabicyclo[3.2.1]octan-3-endo-ylamino)propan-2-yloxy)phenoxy)-2-methylpropanoic acid] was tested, and the IC50 was < 2000 nM.
C[C@@H](NC(=O)c1ccc(N2C3CCC2CC(NC(=O)C(C)(C)Oc2ccc(Cl)cc2OC(F)(F)F)C3)nc1)C(F)(F)F (stereo partly drawn) [Example 415, 6-[3-endo-({2-[4-chloro-2-(trifluoromethoxy)phenoxy]-2-methylpropanoyl}amino)-8-azabicyclo[3.2.1]oct-8-yl]-N-[(2R)-1,1,1-trifluoropropan-2-yl]pyridine-3-carboxamide] was tested, and the IC50 was < 200 nM.
With C[C@H](NC(=O)c1ccc(N2C3CCC2CC(NC(=O)C(C)(C)Oc2ccc(Cl)cc2C(F)(F)F)C3)nc1)C(F)(F)F (stereo partly drawn) [Example 416, 6-[3-endo-({2-[4-chloro-2-(trifluoromethyl)phenoxy]-2-methylpropanoyl}amino)-8-azabicyclo[3.2.1]oct-8-yl]-N-[(2S)-1,1,1-trifluoropropan-2-yl]pyridine-3-carboxamide] the IC50 was < 200 nM.
C[C@H](NC(=O)c1ccc(N2C3CCC2CC(NC(=O)C(C)(C)Oc2ncc(Cl)cc2Cl)C3)nc1)C(F)(F)F (stereo partly drawn) [Example 417, 6-[3-endo-({2-[(3,5-dichloropyridin-2-yl)oxy]-2-methylpropanoyl}amino)-8-azabicyclo[3.2.1]oct-8-yl]-N-[(2S)-1,1,1-trifluoropropan-2-yl]pyridine-3-carboxamide] was tested, and the IC50 was < 200 nM.
In the case of C[C@H](NC(=O)c1ccc(N2C3CCC2CC(NC(=O)C(C)(C)Oc2ccc(F)cc2C(F)F)C3)nc1)C(F)(F)F (stereo partly drawn) [Example 418, 6-[3-endo-({2-[2-(difluoromethyl)-4-fluorophenoxy]-2-methylpropanoyl}amino)-8-azabicyclo[3.2.1]oct-8-yl]-N-[(2S)-1,1,1-trifluoropropan-2-yl]pyridine-3-carboxamide], the IC50 is reported as < 200 nM.
With C[C@H](NC(=O)c1ccc(N2C3CCC2CC(NC(=O)C(C)(C)Oc2ncc(Cl)cc2F)C3)nc1)C(F)(F)F (stereo partly drawn) [Example 419, 6-[3-endo-({2-[(5-chloro-3-fluoropyridin-2-yl)oxy]-2-methylpropanoyl}amino)-8-azabicyclo[3.2.1]oct-8-yl]-N-[(2S)-1,1,1-trifluoropropan-2-yl]pyridine-3-carboxamide] the IC50 was < 2000 nM.
With C[C@H](NC(=O)c1ccc(N2C3CCC2CC(NC(=O)C(C)(C)Oc2ccc(Cl)cc2)C3)nc1)C(F)(F)F (stereo partly drawn) [Example 420, 6-(3-endo-{[2-(4-chlorophenoxy)-2-methylpropanoyl]amino}-8-azabicyclo[3.2.1]oct-8-yl)-N-[(2S)-1,1,1-trifluoropropan-2-yl]pyridine-3-carboxamide] the IC50 was < 2000 nM.
With CC(C)(Oc1ccc(Cl)cc1Cl)C(=O)NC1CC2CCC(C1)N2c1ccc(C(=O)NCC(O)C(F)(F)F)cn1 (stereo not drawn) [Example 421, 6-(3-endo-{[2-(2,4-dichlorophenoxy)-2-methylpropanoyl]amino}-8-azabicyclo[3.2.1]oct-8-yl)-N-(3,3,3-trifluoro-2-hydroxypropyl)pyridine-3-carboxamide] the IC50 was < 200 nM.
CC(C)(Oc1ccc(Cl)cc1S(C)(=O)=O)C(=O)N[C@H]1C[C@H]2CC[C@@H](C1)N2c1ccc(C(=O)NCC(F)F)cn1 [Example 422, 6-[3-endo-({2-[4-chloro-2-(methylsulfonyl)phenoxy]-2-methylpropanoyl}amino)-8-azabicyclo[3.2.1]oct-8-yl]-N-(2,2-difluoroethyl)pyridine-3-carboxamide] was tested, and the IC50 was < 200 nM.
For C[C@H](NC(=O)c1ccc(N2C3CCC2CC(NC(=O)C(C)(C)Oc2ccc(F)cc2C(F)(F)F)C3)nc1)C(F)(F)F (stereo partly drawn) [Example 423, 6-[3-endo-({2-[4-fluoro-2-(trifluoromethyl)phenoxy]-2-methylpropanoyl}amino)-8-azabicyclo[3.2.1]oct-8-yl]-N-[(2S)-1,1,1-trifluoropropan-2-yl]pyridine-3-carboxamide], the IC50 was < 200 nM.
C[C@H](NC(=O)c1ccc(N2C3CCC2CC(NC(=O)C(C)(C)Oc2ccc(Cl)cc2C(F)F)C3)nc1)C(F)(F)F (stereo partly drawn) [Example 424, 6-[3-endo-({2-[4-chloro-2-(difluoromethyl)phenoxy]-2-methylpropanoyl}amino)-8-azabicyclo[3.2.1]oct-8-yl]-N-[(2S)-1,1,1-trifluoropropan-2-yl]pyridine-3-carboxamide] was tested, and the IC50 was < 200 nM.
For C[C@H](NC(=O)c1ccc(N2C3CCC2CC(NC(=O)C(C)(C)Oc2cc(F)c(Cl)cc2Cl)C3)nc1)C(F)(F)F (stereo partly drawn) [Example 425, 6-(3-endo-{[2-(2,4-dichloro-5-fluorophenoxy)-2-methylpropanoyl]amino}-8-azabicyclo[3.2.1]oct-8-yl)-N-[(2S)-1,1,1-trifluoropropan-2-yl]pyridine-3-carboxamide], the IC50 was < 200 nM.
In the case of CC(C)(Oc1cc(OC(C)(C)C(=O)N[C@H]2C[C@H]3CC[C@@H](C2)N3c2ccc(C(=O)NCC(F)(F)F)cn2)c(Cl)cc1Cl)C(N)=O [Example 426, 6-{3-endo-[(2-{5-[(1-amino-2-methyl-1-oxopropan-2-yl)oxy]-2,4-dichlorophenoxy}-2-methylpropanoyl)amino]-8-azabicyclo[3.2.1]oct-8-yl}-N-(2,2,2-trifluoroethyl)pyridine-3-carboxamide], the IC50 is reported as < 200 nM.
In the case of CC(C)(Oc1ccc(Cl)cc1OC(F)(F)F)C(=O)N[C@H]1C[C@H]2CC[C@@H](C1)N2c1ccc(C(=O)NC2(CO)CC2)cn1 [Example 427, 6-[3-endo-({2-[4-chloro-2-(trifluoromethoxy)phenoxy]-2-methylpropanoyl}amino)-8-azabicyclo[3.2.1]oct-8-yl]-N-[1-(hydroxymethyl)cyclopropyl] pyridine-3-carboxamide], the IC50 is reported as < 200 nM.
In the case of CC(C)(Oc1cc(CO)c(Cl)cc1Cl)C(=O)NC1CC2CCC(C1)N2c1ccc(C(=O)NCC(F)F)cn1 (stereo not drawn) [Example 428, 6-[3-endo-({2-[2,4-dichloro-5-(hydroxymethyl)phenoxy]-2-methylpropanoyl}amino)-8-azabicyclo[3.2.1]oct-8-yl]-N-(2,2-difluoroethyl)pyridine-3-carboxamide], the IC50 is reported as < 200 nM.
In the case of CC(C)(Oc1cc(C(C)(C)O)c(Cl)cc1Cl)C(=O)N[C@H]1C[C@H]2CC[C@@H](C1)N2c1ccc(C(=O)NCC(F)F)cn1 [Example 429, 6-[3-endo-({2-[2,4-dichloro-5-(2-hydroxypropan-2-yl)phenoxy]-2-methylpropanoyl}amino)-8-azabicyclo[3.2.1]oct-8-yl]-N-(2,2-difluoroethyl)pyridine-3-carboxamide], the IC50 is reported as < 200 nM.
C[C@H](NC(=O)c1ccc(N2C3CCC2CC(NC(=O)C(C)(C)Oc2cc(F)c(F)cc2Cl)C3)nc1)C(F)(F)F (stereo partly drawn) [Example 430, 6-(3-endo-{[2-(2-chloro-4,5-difluorophenoxy)-2-methylpropanoyl]amino}-8-azabicyclo[3.2.1]oct-8-yl)-N-[(2S)-1,1,1-trifluoropropan-2-yl]pyridine-3-carboxamide] was tested, and the IC50 was < 200 nM.
C[C@H](NC(=O)c1ccc(N2C3CCC2CC(NC(=O)C(C)(C)Oc2ccc(F)cc2F)C3)nc1)C(F)(F)F (stereo partly drawn) [Example 431, 6-(3-endo-{[2-(2,4-difluorophenoxy)-2-methylpropanoyl]amino}-8-azabicyclo[3.2.1]oct-8-yl)-N-[(2S)-1,1,1-trifluoropropan-2-yl]pyridine-3-carboxamide] was tested, and the IC50 was < 200 nM.
C[C@H](NC(=O)c1ccc(N2C3CCC2CC(NC(=O)C(C)(C)Oc2ccc(Cl)cc2S(C)(=O)=O)C3)nc1)C(F)(F)F (stereo partly drawn) [Example 432, 6-[3-endo-({2-[4-chloro-2-(methylsulfonyl)phenoxy]-2-methylpropanoyl}amino)-8-azabicyclo[3.2.1]oct-8-yl]-N-[(2S)-1,1,1-trifluoropropan-2-yl]pyridine-3-carboxamide] was tested, and the IC50 was < 2000 nM.
For CC(C)(Oc1ccc(Cl)cc1C(F)F)C(=O)N[C@H]1C[C@H]2CC[C@@H](C1)N2c1ccc(C(=O)NCC(F)F)cn1 [Example 433, 6-[3-endo-({2-[4-chloro-2-(difluoromethyl)phenoxy]-2-methylpropanoyl}amino)-8-azabicyclo[3.2.1]oct-8-yl]-N-(2,2-difluoroethyl)pyridine-3-carboxamide], the IC50 was < 200 nM.
With C[C@H](NC(=O)c1ccc(N2C3CCC2CC(NC(=O)C(C)(C)Oc2ccc(F)cc2Cl)C3)nc1)C(F)(F)F (stereo partly drawn) [Example 434, 6-(3-endo-{[2-(2-chloro-4-fluorophenoxy)-2-methylpropanoyl]amino}-8-azabicyclo[3.2.1]oct-8-yl)-N-[(2S)-1,1,1-trifluoropropan-2-yl]pyridine-3-carboxamide] the IC50 was < 200 nM.
C[C@H](NC(=O)c1ccc(N2C3CCC2CC(NC(=O)C(C)(C)Oc2ccc(Cl)cc2F)C3)nc1)C(F)(F)F (stereo partly drawn) [Example 435, 6-(3-endo-{[2-(4-chloro-2-fluorophenoxy)-2-methylpropanoyl]amino}-8-azabicyclo[3.2.1]oct-8-yl)-N-[(2S)-1,1,1-trifluoropropan-2-yl]pyridine-3-carboxamide] was tested, and the IC50 was < 200 nM.
